Test results reported in PMC12518634, “The noncanonical function of liver-type phosphofructokinase potentiates the efficacy of HDAC inhibitors in cancer” (Signal Transduction and Targeted Therapy, 2025).
Read-outs that look alike come from different tables or passages of the source. Where no end group is shown, it is not given here.

Experiments:
TFK1 cells = assay: Cell viability assay (CellTiter-Glo, 72 h), GI50; format: cell-based, human; settings: TFK1 sgPFKL-1 and sgPFKL-2 versus sgNC, Supplementary Fig. 2d
Protocol: Cell viability was assessed using the CellTiter-Glo luminescent cell viability assay (Vazyme, DD1101) following the manufacturer’s instructions. Briefly, 5000 cells per well were seeded into a 96-well white bottom permeable plate. Different concentrations of drugs were added to each well. After 72 h of treatment, a mixture of CellTier reagent and serum-free culture medium was prepared at a 1:1 ratio, and 100 μL of the mixture was added to each well. After incubation at 37 °C for 15 min, the luminescence was measured using a microplate reader (Synergy H1, Biotek). All the experiments were conducted in triplicate. Cell viability (relative luminescence) was defined as the luminescence of the drug treatment relative to that of the vehicle control.

HuCCT1 cells [1] = assay: CCK-8 cytotoxicity of the peptides; format: cell-based, human; settings: CCK-8 assay, n=3 biological replicates, Supplementary Fig. 13c
Protocol: The cell proliferation rates were determined with a CCK-8 Cell Counting Kit (Vazyme, A311) in strict accordance with the provided protocol. The colony formation capacity was assessed by plating the cells in 6-well plates (5000 cells/well), followed by drug treatment over a 7-day period. Finally, the resulting colonies were subjected to crystal violet staining for subsequent quantification.
(§1) Supplementary Fig. 13. […] Scale bars, 100 μm. i Body weight of each group of HuCCT1 xenografts at the end of treatment is plotted (n = 6 mice per group, two-way ANOVA). j The tumor weight of each group of HuCCT1 xenografts at the end of treatment is plotted (n = 6 mice per group, Student’s t test).

HuCCT1 cells [2] = assay: Confocal imaging of peptide infiltration into cells; format: in vitro ADME, human; settings: confocal images, Supplementary Fig. 13b
Description: as §1

1405R3 = assay: High-throughput drug screen, CellTiter-Glo viability, 72 h; format: cell-based, human; parameters: AUC: scale not given here; settings: 1405R3 DSRT analysis; for AUC: area under the dose-response curve; for MIN: lower asymptote of fitted dose-response curve; for SLOPE: slope of fitted dose-response curve; for EC50: 72 h, fitted dose-response curve, Min.Conc.tested 1, Max.Conc.tested 10000, read-out: EC50
Outline: (§2)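 Cholangiocarcinoma cells were seeded at 3000/well in 384-well plates and dosed after 24 h. Drugs were tested at 10, 1, 0.1, 0.01 and 0.001 μM in duplicate for 72 h, with viability read by CellTiter-Glo luminescence.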

783C-6 = assay: as above; format: cell-based, human; parameters: AUC: scale not given here; settings: for AUC: area under the dose-response curve; for EC50: 72 h, read-out: EC50
Outline: as §2

[3] = 783C-6 cells, DSS of DSRT analysis
[4] = 783C-6 cells, minimum of dose-response curve
[5] = 783C-6 DSRT analysis, DSS calculated from the dose-response curve
[6] = 783C-6 DSRT analysis, MIN of the fitted dose-response curve
[7] = 783C-6 DSRT analysis, slope of the fitted dose-response curve
[8] = 783C-6 cells, slope of fitted dose-response curve

| Compound | AUC (1405R3) | DSS (1405R3; drug sensitivity score) | MIN (1405R3) | DSS (783C-6; [3]) | AUC (783C-6; 783C-6 cells) | MIN (783C-6; [4]) | DSS (1405R3; DSS) | SLOPE (1405R3) | DSS (783C-6; [5]) | MIN (783C-6; [6]) | AUC (783C-6; 783C-6 DSRT analysis) | also measured |
| --- | --- | --- | --- | --- | --- | --- | --- | --- | --- | --- | --- | --- |
| CCC(=O)CCCCC[C@@H]1NC(=O)[C@H]2CCCCN2C(=O)[C@H]([C@@H](C)CC)NC(=O)[C@H](Cc2cn(OC)c3ccccc23)NC1=O [apicidin] |  |  |  |  |  |  |  |  |  |  |  | effect of PFKL knockout on drug efficacy (cell viability) (TFK1 cells): significantly inhibited drug efficacy |
| CDRIKQSASGTKRRVFIVETMRRRRRRRR [PFKL-552-572-R8] |  |  |  |  |  |  |  |  |  |  |  | cytotoxicity (HuCCT1 cells [1]): low cytotoxicity; cellular permeability (HuCCT1 cells [2]): good cellular permeability |
| C[C@@H]1NC(=O)[C@H]2CCCN2C(=O)[C@H](CCCCCC(=O)[C@@H]2CO2)NC(=O)[C@@H](C)NC1=O [HC-Toxin] |  |  |  |  |  |  |  |  |  |  |  | effect of PFKL knockout on drug efficacy (cell viability) (TFK1 cells): significantly inhibited drug efficacy |
| O=C(CCCCCCC(=O)Nc1ccccc1)NO [vorinostat, reference compound] | 87 | 10 | 6.1 | 11.5 | 104.1 | 3.6 |  |  |  |  |  | effect of PFKL knockout on drug efficacy (cell viability) (TFK1 cells): significantly inhibited drug efficacy |
| CDRIKQSASGKRRVFIVETMRRRRRRRR [∆562-R8] |  |  |  |  |  |  |  |  |  |  |  | cytotoxicity (HuCCT1 cells [1]): low cytotoxicity; cellular permeability (HuCCT1 cells [2]): good cellular permeability |
| CCC(CC)(NC(=O)C(C)C)C(=O)N[C@@H](CCCN=C(N)N)C(=O)NC1(C(=O)NC(c2ccc(F)cc2)c2ccc(F)cc2)CCCC1 [MM-102] | 18.6 |  | 88.1 |  |  |  | 0 | -0.1 | 0 | 88.1 | 18.6 | SLOPE (783C-6; [7]): -0.1 |
| O=C(O[C@@H]1Cc2c(O)cc(O)cc2O[C@@H]1c1cc(O)c(O)c(O)c1)c1cc(O)c(O)c(O)c1 [(-)-Epigallocatechin Gallate] | 0.7 |  | 97.6 |  |  |  | 0 |  | 0 | 75.7 | 22.9 |  |
| CCNC(=O)C[C@@H]1N=C(c2ccc(Cl)cc2)c2cc(OC)ccc2-n2c(C)nnc21 [I-BET-762] |  |  | 42 |  |  |  | 6 | -2.5 | 0 | 97 |  | SLOPE (783C-6; [7]): -2.5 |
| CN1CCC(CNc2ccc3ncc(-c4cccc(OC(F)(F)F)c4)n3n2)CC1 [SGI-1776 free base] | 51.4 | 5.7 | 1.9 | 4.9 | 44.9 | 10.3 |  | -2.5 |  |  |  | EC50 (1405R3; CellTiter-Glo viability, GI50): 3060 nM; EC50 (783C-6; 783C-6 cells, DSRT analysis, CellTiter-Glo viability, concentrations tested 1 to 10000 (unit inferred), GI50): 3230 nM; SLOPE (783C-6; [8]): -2.5 |
| O=C1NC(=O)/C(=C/c2cccc(C(F)(F)F)c2)S1 [SMI-4a] | 0.1 | 0 | 99.6 | 0 | 2.1 | 96.8 |  | -1.3 |  |  |  | SLOPE (783C-6; [8]): -2.5 |
| O=C(/C=C/c1cccc(S(=O)(=O)Nc2ccccc2)c1)NO [belinostat, reference compound] | 121.5 |  | 0 |  |  |  | 12.9 |  | 19 | 0.2 | 173.8 | effect of PFKL knockout on drug efficacy (cell viability) (TFK1 cells): significantly inhibited drug efficacy; EC50 (1405R3; Homo sapiens, CellTiter-Glo): 684 nM; EC50 (783C-6; Homo sapiens): 195 nM |
| COc1ccc(-c2nc(N3CCOCC3)c3sc(CN(C)c4ncc(C(=O)NO)cn4)cc3n2)cn1 [CUDC-907] | 188.1 |  | 0.8 |  |  |  | 22.6 |  | 21.1 | 2.9 | 175.2 | EC50 (1405R3; Homo sapiens, CellTiter-Glo): 127 nM; EC50 (783C-6; Homo sapiens): 157 nM |
| CC(C)(C)OC(=O)Nc1ccc(-c2cc(C(=O)NCCCCCCC(=O)NO)no2)cc1 [CAY10603] | 45.4 |  | 20.6 |  |  |  | 5 | -2.5 | 4.4 | 30.8 | 39.5 | EC50 (1405R3; CellTiter-Glo): 2720 nM; EC50 (783C-6; 783C-6 DSRT analysis, CellTiter-Glo viability, fitted dose-response curve, Min.Conc.tested 1, Max.Conc.tested 10000): 2730 nM; SLOPE (783C-6; [7]): -2.5 |
| CCCCN(Cc1ccc(C(=O)NO)cc1)C(=O)Nc1ccccc1 [Nexturastat A] | 0.7 | 0 | 93.8 | 0 | 4.3 | 85.6 |  |  |  |  |  |  |
| O=C1[C@H](Cc2ccc(O)cc2)N2C(=O)CCN(C(=O)NCc3ccccc3)[C@H]2CN1Cc1cccc2ccccc12 [ICG-001] | 0.1 |  | 100 |  |  |  | 0 | -0.1 | 0 | 90.7 | 16.9 | SLOPE (783C-6; [7]): -2.5 |
| CN1CCc2c(c3ccccc3n2Cc2ccc(C(=O)NO)cc2)C1.Cl [Tubastatin A HCl] | 3.3 | 0 | 94.8 | 0 | 2.4 | 92.1 |  | -0.5 |  |  |  | SLOPE (783C-6; [8]): -1 |
| COc1cc2nc(N3CCCN(C)CC3)nc(NC3CCN(Cc4ccccc4)CC3)c2cc1OC [BIX 01294] | 42.6 |  | 12.3 |  |  |  | 4.6 |  | 4.7 | 28 | 42.4 | EC50 (1405R3; Homo sapiens, CellTiter-Glo): 3350 nM; EC50 (783C-6; Homo sapiens): 2610 nM |
| CCCCCCCCCCCCCCCCNNC(=O)c1cccs1 [SIS17] | 24.4 | 0 | 84.3 | 0 | 4.7 | 84.4 |  | -0.1 |  |  |  | SLOPE (783C-6; [8]): -1 |
| OG-L002 | 0.1 | 0 | 100 | 0 | 3 | 94.7 |  | -0.1 |  |  |  | SLOPE (783C-6; [8]): -0.5 |
| CN(C)NC(=O)CCC(=O)O [Daminozide] | 0.1 |  | 99.6 |  |  |  | 0 |  | 0 | 97.8 | 1 |  |
